Measured values taken from paper PMC5201331, “Subchronic Toxicities of HZ1006, a Hydroxamate-Based Histone Deacetylase Inhibitor, in Beagle Dogs and Sprague-Dawley Rats” (International Journal of Environmental Research and Public …, 2016).

Tests used:
[1] = tested on: Beagle dogs; test: Subchronic toxicity test in Beagle dogs: hematology; format: in vivo
Procedure: (§1) HZ1006 was administered orally to dogs (four/sex/group) at doses of 80, 40, 20, 5 and 0 (control) mg/kg/day, and the dosage volume was 2 mL/kg. The dogs received test doses with the exact amounts on a weekly basis based on current body weights. […] The other dogs in the above groups were dissected on the planned days. For the other groups, half of the dogs were anatomized on d28 and the remaining half on d42.
The following indexes were examined for the dogs used in the study, twice during the pre-dosage period and on d14, d28 and d42. The following parameters were evaluated on d28 and d42 for the rats in the study:
Blood samples of the animals were collected in tubes containing ethylenediamine tetraacetic acid (EDTA) and tested using an ADVIA2120 Hematology Autoanalyzer (Bayer, Leverkusen, Germany). The following indexes were examined: hemoglobin concentration (Hb), red blood cell count (RBC),mean corpuscular volume (MCV), hematocrit (HCT), mean corpuscular hemoglobin concentration (MCHC), mean corpuscular hemoglobin (MCH), white blood cell count (WBC), platelet count (Plt), WBC differential counts [neutrophilcyte (Neu), eosinophilic granulocyte (Eos), basophilic leukocyte (Bas), lymphocyte (Lym), and monocyte (Mon)] and reticulocytes (Ret). The serum coagulation times of the blood samples (1.8-mL samples were mixed with 0.2 mL sodium citrate), including prothrombin time (PT), fibrinogen (FIB), activated partial thromboplastin time (APTT), and thrombin time (TT), were tested using an MC10 plus Blood Coagulation Analyzer from Shanghai San Jose Medical Products Co., Ltd. (Shanghai, China).

[2] = tested on: Beagle dogs; test: Subchronic toxicity test in Beagle dogs: clinical observation; format: in vivo; details: for Frequencies of Diarrhea / Frequencies of Vomiting: beagle, dog, in vivo, po, 42 days
Procedure: as §1
Clinical symptoms and mortality were examined at least twice daily during the 42-day period, which included any changes in reaction to treatment, behavior, illness, food consumption, and body weight. Breathing rates, rectal temperature and pupil changes in the Beagle dogs were assessed once every 2 weeks.

[3] = dog ♀6 (80 mg/kg/day oral), d0 (pre-dose)
[4] = dog ♀6 (80 mg/kg/day oral), d14 line (moribund, euthanized d8)
[5] = dog ♀28 (40 mg/kg/day oral), d0 (pre-dose)
[6] = dog ♀28 (40 mg/kg/day oral), d14 (died d16)
[7] = dogs, 5 mg/kg/day oral, d0 (pre-dose)
[8] = dogs, 5 mg/kg/day oral, d42 (recovery)
[9] = dogs, 20 mg/kg/day oral, d0 (pre-dose)
[10] = dogs, 20 mg/kg/day oral, d42 (recovery)
[11] = dogs, 40 mg/kg/day oral, d0 (pre-dose)
[12] = dogs, 40 mg/kg/day oral, d42 (recovery)
[13] = dogs, 80 mg/kg/day oral, d0 (pre-dose)
[14] = dogs, 80 mg/kg/day oral, d42 (recovery)

## CCCCCCCNc1cc(/C=C/C(=O)NO)ccc1OCCN(CC)CC [HZ1006]
[1]; [3]
  APTT: Activated partial thromboplastin time: 13.9 s
  RET: Reticulocytes: 1.37%
[1]; [4]
  APTT: Activated partial thromboplastin time: 48.7 s
  RET: Reticulocytes: 0.14%
[1]; [5]
  APTT: Activated partial thromboplastin time: 12.4 s
  RET: Reticulocytes: 0.75%
[1]; [6]
  APTT: Activated partial thromboplastin time: 18.5 s
  RET: Reticulocytes: 0.04%
[1]; [7]
  APTT: Activated partial thromboplastin time: 13.6 ± 0.6 s
  FIB: Fibrinogen: 2.25 ± 0.37 g/L
  HCT: Hematocrit: 43.0 ± 2.6%
  HGB: Hemoglobin concentration: 139 ± 8 g/L
  MON: Monocyte: 4.4 ± 1.6%
  RBC: Red blood cell count: 6.31 ± 0.45 ×10^12/L
  RET: Reticulocytes: 0.77 ± 0.38%
[1]; dogs, 5 mg/kg/day oral, d14
  APTT: Activated partial thromboplastin time: 13.2 ± 0.6 s
  FIB: Fibrinogen: 2.53 ± 0.46 g/L
  HCT: Hematocrit: 41.8 ± 2.7%
  HGB: Hemoglobin concentration: 138 ± 9 g/L
  MON: Monocyte: 4.2 ± 1.0%
  RBC: Red blood cell count: 6.23 ± 0.46 ×10^12/L
  RET: Reticulocytes: 0.62 ± 0.29%
[1]; dogs, 5 mg/kg/day oral, d28
  APTT: Activated partial thromboplastin time: 13.1 ± 0.5 s
  FIB: Fibrinogen: 2.56 ± 0.40 g/L
  HCT: Hematocrit: 41.6 ± 2.4%
  HGB: Hemoglobin concentration: 135 ± 8 g/L
  MON: Monocyte: 4.4 ± 1.4%
  RBC: Red blood cell count: 6.22 ± 0.43 ×10^12/L
  RET: Reticulocytes: 0.49 ± 0.23%
[1]; [8]
  APTT: Activated partial thromboplastin time: 13.4 ± 0.4 s
  FIB: Fibrinogen: 2.89 ± 0.60 g/L
  HCT: Hematocrit: 41.0 ± 1.8%
  HGB: Hemoglobin concentration: 134 ± 7 g/L
  MON: Monocyte: 4.0 ± 1.2%
  RBC: Red blood cell count: 6.21 ± 0.36 ×10^12/L
  RET: Reticulocytes: 0.61 ± 0.22%
[1]; [9]
  APTT: Activated partial thromboplastin time: 12.4 ± 0.3 s
  FIB: Fibrinogen: 4.07 ± 0.94 g/L
  HCT: Hematocrit: 42.2 ± 3.9%
  HGB: Hemoglobin concentration: 142 ± 13 g/L
  MON: Monocyte: 4.7 ± 1.3%
  RBC: Red blood cell count: 6.20 ± 0.58 ×10^12/L
  RET: Reticulocytes: 0.96 ± 0.24%
[1]; dogs, 20 mg/kg/day oral, d14
  APTT: Activated partial thromboplastin time: 12.5 ± 0.5 s
  FIB: Fibrinogen: 4.30 ± 1.17 g/L
  HCT: Hematocrit: 36.9 ± 2.2 %
  HGB: Hemoglobin concentration: 118 ± 7 g/L
  MON: Monocyte: 8.0 ± 2.3 %
  RBC: Red blood cell count: 5.57 ± 0.30 ×10^12/L
  RET: Reticulocytes: 0.53 ± 0.23 %
[1]; dogs, 20 mg/kg/day oral, d28
  APTT: Activated partial thromboplastin time: 12.0 ± 0.7 s
  FIB: Fibrinogen: 4.48 ± 1.68 g/L
  HCT: Hematocrit: 36.6 ± 1.0 %
  HGB: Hemoglobin concentration: 118 ± 3 g/L
  MON: Monocyte: 9.0 ± 1.4 %
  RBC: Red blood cell count: 5.57 ± 0.16 ×10^12/L
  RET: Reticulocytes: 0.54 ± 0.19 %
[1]; [10]
  APTT: Activated partial thromboplastin time: 12.8 ± 0.3 s
  FIB: Fibrinogen: 4.26 ± 0.49 g/L
  HCT: Hematocrit: 39.4 ± 1.7%
  HGB: Hemoglobin concentration: 128 ± 8 g/L
  MON: Monocyte: 5.8 ± 1.0%
  RBC: Red blood cell count: 5.96 ± 0.13 ×10^12/L
  RET: Reticulocytes: 0.83 ± 0.23%
[1]; [11]
  APTT: Activated partial thromboplastin time: 12.8 ± 0.5 s
  FIB: Fibrinogen: 4.84 ± 0.89 g/L
  HCT: Hematocrit: 41.7 ± 2.0%
  HGB: Hemoglobin concentration: 139 ± 6 g/L
  MON: Monocyte: 6.0 ± 1.8%
  RBC: Red blood cell count: 6.01 ± 0.31 ×10^12/L
  RET: Reticulocytes: 0.86 ± 0.17%
[1]; dogs, 40 mg/kg/day oral, d14
  APTT: Activated partial thromboplastin time: 16.8 ± 0.7 s
  FIB: Fibrinogen: 7.19 ± 1.58 g/L
  HCT: Hematocrit: 35.5 ± 2.6 %
  HGB: Hemoglobin concentration: 114 ± 8 g/L
  MON: Monocyte: 9.2 ± 5.3%
  RBC: Red blood cell count: 5.6 ± 0.36 ×10^12/L
  RET: Reticulocytes: 0.13 ± 0.11 %
[1]; dogs, 40 mg/kg/day oral, d28
  APTT: Activated partial thromboplastin time: 12.8 ± 0.8 s
  FIB: Fibrinogen: 4.93 ± 1.22 g/L
  HCT: Hematocrit: 32.8 ± 2.8 %
  HGB: Hemoglobin concentration: 105 ± 9 g/L
  MON: Monocyte: 11.6 ± 4.5 %
  RBC: Red blood cell count: 5.00 ± 0.47 ×10^12/L
  RET: Reticulocytes: 0.51 ± 0.22 %
[1]; [12]
  APTT: Activated partial thromboplastin time: 12.9 ± 0.8 s
  FIB: Fibrinogen: 4.22 ± 1.25 g/L
  HCT: Hematocrit: 39.7 ± 0.1%
  HGB: Hemoglobin concentration: 124 ± 1 g/L
  MON: Monocyte: 6.4 ± 3.5%
  RBC: Red blood cell count: 5.96 ± 0.06 ×10^12/L
  RET: Reticulocytes: 0.89 ± 0.65%
[1]; [13]
  APTT: Activated partial thromboplastin time: 13.4 ± 0.6 s
  FIB: Fibrinogen: 3.80 ± 0.84 g/L
  HCT: Hematocrit: 40.3 ± 3.0%
  HGB: Hemoglobin concentration: 134 ± 10 g/L
  MON: Monocyte: 5.0 ± 0.8%
  RBC: Red blood cell count: 5.92 ± 0.42 ×10^12/L
  RET: Reticulocytes: 0.92 ± 0.27%
[1]; dogs, 80 mg/kg/day oral, d14
  APTT: Activated partial thromboplastin time: 16.2 ± 3.0 s
  FIB: Fibrinogen: 7.06 ± 2.14 g/L
  HCT: Hematocrit: 33.4 ± 2.6 %
  HGB: Hemoglobin concentration: 107 ± 8 g/L
  MON: Monocyte: 19.7 ± 19.7 %
  RBC: Red blood cell count: 5.09 ± 0.42 ^##^,* ×10^12/L
  RET: Reticulocytes: 0.08 ± 0.12 %
[1]; dogs, 80 mg/kg/day oral, d28
  APTT: Activated partial thromboplastin time: 12.5 ± 0.5 s
  FIB: Fibrinogen: 6.69 ± 0.62 g/L
  HCT: Hematocrit: 26.9 ± 1.7 %
  HGB: Hemoglobin concentration: 86 ± 5 g/L
  MON: Monocyte: 12.5 ± 2.9 %
  RBC: Red blood cell count: 4.17 ± 0.33 ×10^12/L
  RET: Reticulocytes: 0.21 ± 0.16 %
[1]; [14]
  APTT: Activated partial thromboplastin time: 12.7 ± 0.9 s
  FIB: Fibrinogen: 3.72 ± 2.00 g/L
  HCT: Hematocrit: 37.5 ± 3.1%
  HGB: Hemoglobin concentration: 126 ± 4 g/L
  MON: Monocyte: 5.0 ± 1.9%
  RBC: Red blood cell count: 5.71 ± 0.50 ×10^12/L
  RET: Reticulocytes: 0.88 ± 0.27%
[2]; dogs, 5-80 mg/kg/day oral, ♀6 d8 and ♀8 d10 (80 mg/kg), ♀28 d16 (40 mg/kg)
  mortality: Three dogs died during the study
[2]; female, 5 mg/kg/day
  Frequencies of Diarrhea: 0 days
  Frequencies of Vomiting: 0 days
[2]; female, 20 mg/kg/day
  Frequencies of Diarrhea: 0 days
[2]; male, 5 mg/kg/day
  Frequencies of Diarrhea: 0 days
  Frequencies of Vomiting: 0 days
[2]; male, 20 mg/kg/day
  Frequencies of Diarrhea: 0 days
